The record followed here is PubChem BioAssay AID278 (DTP/NCI, 2004).

This assay has as its system nude mice, A549 intrarenal xenograft, tumor weight change. The experiment in a line: NCI In Vivo Anticancer Drug Screen. Data for tumor model A549 Human Adenocarcinoma of Lung with characteristics of Type II Alveolar Epithelial cells (intrarenal inoculation) in NU/NU BALB/C (nude) mice. The following applies: endpoint: mean tumor weight change, schedule: Q04DX003 (ip), higher = larger tumour. In short, it runs like this: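 Activity is expressed as T/C: the treated-group value over the vehicle-treated control value. The measure was survival or tumor size in mice carrying transplantable tumors.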

Where [1] appears, read: dose: 50.0 mg/kg/injection, vehicle: saline with Tween-80.
[2] abbreviates: dose: 100.0 mg/kg/injection, vehicle: saline with Tween-80.
The mark [3] stands for this setting: dose: 200.0 mg/kg/injection, vehicle: saline with Tween-80.
Where [4] appears, read: dose: 150.0 mg/kg/injection, vehicle: Klucel (hydroxypropylcellulose) (HPC).
[5] abbreviates: dose: 300.0 mg/kg/injection, vehicle: Klucel (hydroxypropylcellulose) (HPC).
Setting [6] is: dose: 150.0 mg/kg/injection, vehicle: saline with Tween-80.
Setting [7] is: dose: 300.0 mg/kg/injection, vehicle: saline with Tween-80.
Setting [8] is: dose: 12.5 mg/kg/injection, vehicle: saline with Tween-80.
Setting [9] is: dose: 25.0 mg/kg/injection, vehicle: saline with Tween-80.
Where [10] appears, read: dose: 25.0 mg/kg/injection, vehicle: saline.
[11] abbreviates: dose: 75.0 mg/kg/injection, vehicle: Klucel (hydroxypropylcellulose) (HPC).
[12] abbreviates: dose: 600.0 mg/kg/injection, vehicle: saline with Tween-80.

“And” between values parts separate entries of the source, which are not always exact repeats. Equal entries are not always repeated. Records with an inconclusive call do not appear.

As for `Cc1ccccc1N=C(c1ccccc1)C1C(=O)c2ccccc2C1=O`, the T/C was 101 % of control (dose: 150.0 mg/kg/injection, vehicle: other); 75 % of control (dose: 300.0 mg/kg/injection, vehicle: other); 104 % of control (dose: 600.0 mg/kg/injection, vehicle: other); 121 % of control (dose: 1200.0 mg/kg/injection, vehicle: other).
In the case of `Cc1ccoc1`, the T/C reads like this: under setting [1], 78 % of control; under setting [2], 89 % of control; under setting [3], 75 % of control.
As to `CNC(=O)N(C)N=NCCCl`, the T/C under setting [2] is -19 % of control and the T/C under setting [3] is -66 % of control.
For `NC(Cc1ccccc1)C(=O)OCN1C(=O)C2C3C=CC(C2C1=O)C1C2C(=O)N(COC(=O)C(N)Cc4ccccc4)C(=O)C2C31` (centres undefined), the T/C is 82 % of control (dose: 25.0 mg/kg/injection, vehicle: other); 73 % of control (dose: 50.0 mg/kg/injection, vehicle: other); 48 % of control (dose: 100.0 mg/kg/injection, vehicle: other); 35 % of control (dose: 200.0 mg/kg/injection, vehicle: other).
In the case of `NC(N)=NS(=O)(=O)c1ccc(NCc2c3ccccc3nc3ccccc23)cc1`, the T/C is, setting by setting: under setting [4], 4 % of control; under setting [5], 10 % of control; (dose: 600.0 mg/kg/injection, vehicle: Klucel (hydroxypropylcellulose) (HPC)) -10 % of control; (dose: 1200.0 mg/kg/injection, vehicle: Klucel (hydroxypropylcellulose) (HPC)) -7 % of control.
Consider `O=C1c2ccccc2C(Cl)(c2ccc(Cl)cc2)c2ccc(Cl)cc21` (centres undefined), for which the T/C under setting [6] is 244 % of control.
As to `Cc1ccc(C(=Nc2ccccc2)N=P(c2ccccc2)(c2ccccc2)c2ccccc2)cc1`, the T/C reads like this: under setting [1], 90 % of control; under setting [3], 82 % of control.
Turning to `Cc1c2ccccc2c(C)c2c1cc(C(=O)O)c1ccccc12`, the T/C is, setting by setting: (dose: 37.5 mg/kg/injection, vehicle: saline with Tween-80) 150 % of control; under setting [6], 113 % of control; under setting [7], 85 % of control.
For the compound `O=C(NC(Cc1ccc(I)cc1)C(=O)O)c1cccc(Br)c1` (centres undefined), the T/C runs as follows: (dose: 100.0 mg/kg/injection, vehicle: Klucel (hydroxypropylcellulose) (HPC)) 99 % of control; under setting [4], 35 % of control; (dose: 200.0 mg/kg/injection, vehicle: Klucel (hydroxypropylcellulose) (HPC)) 45 % of control; under setting [5], 35 % of control.
Turning to `Cc1ccc(C(=O)NC2C(=O)NC(C(C)C)C(=O)N3CCCC3C(=O)N(C)CC(=O)N(C)C(C(C)C)C(=O)OC2C)c2c1Oc1c(c(C(=O)NC3C(=O)NC(C(C)C)C(=O)N4CCCC4C(=O)N(C)CC(=O)N(C)C(C(C)C)C(=O)OC3C)c3nc(-c4ccccc4)c(=O)oc3c1C)N2` (centres undefined), the T/C runs as follows: (dose: 0.36 mg/kg/injection, vehicle: water) 101 % of control; (dose: 0.5 mg/kg/injection, vehicle: water) 61 % of control; (dose: 0.6 mg/kg/injection, vehicle: water) 94 % of control; (dose: 1.67 mg/kg/injection, vehicle: water) 62 % of control.
For `O=[N+]([O-])c1ccc(N(CCO)CCO)c2c1no[n+]2[O-]`, the T/C is 53 % of control under setting [8], 83 % of control under setting [9] and 34 % of control under setting [1].
Regarding `CNC(=O)OCc1nc(SC)n(C)c1COC(=O)NC`, the T/C reads like this: (dose: 12.5 mg/kg/injection, vehicle: saline) 156 % of control; under setting [10], 28 % of control.
On to `COc1cc(C)c(C2NC(=O)c3ccccc3N2)cc1C` (centres undefined), for which the T/C under setting [11] was 5 % of control; the T/C (dose: 129.6 mg/kg/injection, vehicle: Klucel (hydroxypropylcellulose) (HPC)) is 161 % of control; the T/C under setting [4] is 47 % of control; the T/C under setting [5] is 6 % of control; the T/C (dose: 360.0 mg/kg/injection, vehicle: Klucel (hydroxypropylcellulose) (HPC)) was 112 % of control; the T/C (dose: 1000.0 mg/kg/injection, vehicle: Klucel (hydroxypropylcellulose) (HPC)) is 65 % of control.
Take `CN(C)c1ccc2c(SCC(=O)OCC(=O)[C@@]3(O)CC[C@H]4[C@@H]5CCC6=CC(=O)C=C[C@]6(C)[C@H]5C(=O)C[C@@]43C)c3ccc(N(C)C)cc3nc2c1`: the T/C by setting is: under setting [11], 52 % of control; under setting [4], 62 % of control; under setting [5], 96 % of control.
Regarding `C=C(Cl)C(=NC(C)(C)C)Nc1ccccc1C`, the T/C is 73 % of control (dose: 10.0 mg/kg/injection, vehicle: Klucel + Tween-80) and 68 % of control (dose: 20.0 mg/kg/injection, vehicle: Klucel + Tween-80).
For `S=c1sc2ccccc2n1CN1CCOCC1`, the T/C is 81 % of control under setting [6], 172 % of control under setting [7] and 57 % of control under setting [12].
For `C=Cc1cc(OC)c2c(c1)c(=O)oc1c2cc(OC)c2c(O)ccc(C3OC(C)C(O)C(C)(O)C3O)c21` (centres undefined), under “dose: 300.0 mg/kg/injection, vehicle: DMSO”, the T/C is 32 % of control.
For the compound `NC(=O)c1cc(Cl)nc2nc(Cl)nc(N)c12`, the T/C is, setting by setting: under setting [6], 111 % of control; under setting [7], 89 % of control; under setting [12], 55 % of control; (dose: 1200.0 mg/kg/injection, vehicle: saline with Tween-80) 93 % of control.
For `COc1cc(C2=NCCc3cc4c(cc32)OCO4)cc(OC)c1OC`, the T/C by setting is: (dose: 37.5 mg/kg/injection, vehicle: saline + alcohol) 73 % of control; (dose: 75.0 mg/kg/injection, vehicle: saline + alcohol) 49 % of control; (dose: 150.0 mg/kg/injection, vehicle: saline + alcohol) 31 % of control.
For the compound `C/C(=N\NC(=S)N1CC2CCC(CC2)C1)c1nccs1`, the T/C by setting is: under setting [8], 62 % of control; under setting [9], 47 % of control; under setting [1], 32 % of control.
Take `Cc1ccc2c(c1)n([O-])c1cc(Cl)ccc1[n+]2=O`: the T/C was 102 % of control (dose: 35.0 mg/kg/injection, vehicle: saline with Tween-80); 65 % of control (dose: 70.0 mg/kg/injection, vehicle: saline with Tween-80); 108 % of control (dose: 140.0 mg/kg/injection, vehicle: saline with Tween-80); 94 % of control (dose: 280.0 mg/kg/injection, vehicle: saline with Tween-80).
As for `O=NNc1cccnc1`, the T/C reads like this: (dose: 50.0 mg/kg/injection, vehicle: water) 56 % of control and 75 % of control; (dose: 100.0 mg/kg/injection, vehicle: water) 80 % of control.
On to `Cn1c(=S)sc2nc3ccccc3n2c1=S`, for which the T/C is, setting by setting: (dose: 30.0 mg/kg/injection, vehicle: saline with Tween-80) 83 % of control; (dose: 60.0 mg/kg/injection, vehicle: saline with Tween-80) 50 % of control; (dose: 120.0 mg/kg/injection, vehicle: saline with Tween-80) 73 % of control.
`C/C(=N\NC(=O)c1ccccc1O)c1cccc(/C(C)=N/NC(=O)c2ccccc2O)n1`: the T/C by setting is: under setting [10], 97 % of control; (dose: 50.0 mg/kg/injection, vehicle: saline) 71 % of control; (dose: 100.0 mg/kg/injection, vehicle: saline) 65 % of control; (dose: 200.0 mg/kg/injection, vehicle: saline) 77 % of control.
